Experimental data: ChEMBL document CHEMBL5223109, “The discovery of BMS-737 as a potent, CYP17 lyase-selective inhibitor for the treatment of castration-resistant prostate cancer” (Bioorg Med Chem Lett, 2022)

What was measured:
[1] = Metabolic stability in mouse liver microsomes assessed as parent compound remaining; format: ADME, Microsome; also: time not given here
[2] = biological target: T1, Steroid 17-alpha-hydroxylase/17,20 lyase (Homo sapiens, UniProt P05093); assay: Inhibition of human CYP17A1; format: ADME
T1 sequence (P05093 whole entry): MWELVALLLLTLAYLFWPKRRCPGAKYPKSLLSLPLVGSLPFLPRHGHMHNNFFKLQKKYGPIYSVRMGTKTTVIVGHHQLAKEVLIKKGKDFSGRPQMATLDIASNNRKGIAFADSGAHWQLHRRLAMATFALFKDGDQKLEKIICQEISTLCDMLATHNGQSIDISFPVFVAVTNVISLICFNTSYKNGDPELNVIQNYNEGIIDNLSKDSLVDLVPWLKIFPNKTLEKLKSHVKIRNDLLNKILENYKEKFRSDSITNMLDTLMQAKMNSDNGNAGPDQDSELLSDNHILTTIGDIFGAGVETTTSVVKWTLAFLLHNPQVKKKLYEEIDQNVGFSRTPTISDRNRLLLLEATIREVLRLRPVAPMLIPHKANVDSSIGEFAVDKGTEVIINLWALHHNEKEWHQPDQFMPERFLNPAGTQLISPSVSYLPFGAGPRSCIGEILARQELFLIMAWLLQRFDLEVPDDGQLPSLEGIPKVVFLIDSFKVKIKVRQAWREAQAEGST

[3] = Metabolic stability in rat liver microsomes assessed as parent compound remaining; format: ADME, Microsome; also: time not given here
[4] = Metabolic stability in human liver microsomes assessed as parent compound remaining relative to control; format: ADME, Microsome; also: time not given here
Cytochrome P450 1A2 = biological target: T2, Cytochrome P450 1A2 (Homo sapiens, UniProt P05177); assay: Inhibition of CYP1A2 (unknown origin); format: ADME
T2 sequence (P05177 whole entry): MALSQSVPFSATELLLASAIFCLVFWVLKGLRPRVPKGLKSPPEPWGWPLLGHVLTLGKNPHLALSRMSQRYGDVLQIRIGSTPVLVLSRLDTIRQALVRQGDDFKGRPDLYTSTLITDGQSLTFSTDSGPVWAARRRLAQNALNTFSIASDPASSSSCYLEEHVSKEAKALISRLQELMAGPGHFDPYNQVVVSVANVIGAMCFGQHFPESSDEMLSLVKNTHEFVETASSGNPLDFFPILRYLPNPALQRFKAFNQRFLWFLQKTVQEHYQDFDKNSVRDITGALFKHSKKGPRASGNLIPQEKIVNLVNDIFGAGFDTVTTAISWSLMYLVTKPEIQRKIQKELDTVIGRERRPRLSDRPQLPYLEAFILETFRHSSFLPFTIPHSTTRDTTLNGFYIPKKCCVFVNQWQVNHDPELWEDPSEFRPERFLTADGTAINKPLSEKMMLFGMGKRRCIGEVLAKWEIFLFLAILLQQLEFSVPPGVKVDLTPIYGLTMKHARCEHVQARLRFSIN

[5] = biological target: T1, Steroid 17-alpha-hydroxylase/17,20 lyase; assay: Selectivity ratio for inhibition of human CYP17A1 hydroxylase activity to inhibition of human CYP17A1 lyase activity; format: ADME

For `Cc1ccncc1-c1cccc2c(-c3ccccc3)noc12`, the Stability [1] was 5%, the IC50 [2] was 0.001 µM and the Stability [3] was 6%. For the same compound, the Stability [4] was 80% and the IC50 (Cytochrome P450 1A2) was 0.028 µM.
`Cn1cncc1-c1ccnc2c1cnn2-c1ccc(F)cc1` showed a Stability [1] of 37%, a Stability [3] of 56% and a Ratio [5] of 30. It also gave a Stability [4] of 100% and an IC50 (Cytochrome P450 1A2) of 0.058 µM.
`Cc1ccncc1-c1ccnn2c(-c3ccccc3)cnc12` gave a Stability [1] of 26%, a Stability [3] of 47% and a Stability [4] of 100%. It also gave an IC50 (Cytochrome P450 1A2) of 0.318 µM.
Compound `Cc1ccncc1-c1ccnc2c1cnn2-c1cccc(F)c1` has a Stability [1] of 4%, an IC50 [2] of 0.027 µM and a Stability [3] of 9%. It also gave a Ratio [5] of 36, a Stability [4] of 76% and an IC50 (Cytochrome P450 1A2) of 0.281 µM.
For `Fc1ccc(-n2ncc3c(-c4cncnc4N4CC(F)(F)C4)ccnc32)cc1`, the Stability [1] was 62%, the IC50 [2] was 0.004 µM and the Stability [3] was 35%. For the same compound, the Ratio [5] was 3, the Stability [4] was 85% and the IC50 (Cytochrome P450 1A2) was greater than 40 µM.
Work on `Cc1ccncc1-c1ccnc2c1cnn2-c1ccccc1` yielded a Stability [1] of 7%, an IC50 [2] of 0.007 µM and a Stability [3] of 4%. For the same compound, the Stability [4] was 73% and the IC50 (Cytochrome P450 1A2) was 0.56 µM.
With `Nc1ncncc1-c1ccnc2c1cnn2-c1ccc(F)cc1C(F)(F)F` the Stability [1] was 68%, the IC50 [2] was 0.014 µM and the Stability [3] was 94%. It also gave a Ratio [5] of 3, a Stability [4] of 100% and an IC50 (Cytochrome P450 1A2) greater than 40 µM.
Work on `Fc1ccc(-n2ncc3c(-c4cccnc4)ccnc32)cc1` yielded an IC50 [2] of 0.096 µM and an IC50 (Cytochrome P450 1A2) of 0.216 µM.
For `Cc1ccncc1-c1ccnc2c1cnn2-c1nccs1`, the Stability [1] was 42%, the IC50 [2] was 0.091 µM and the Stability [3] was 48%. It also gave a Stability [4] of 64% and an IC50 (Cytochrome P450 1A2) of 0.617 µM.
Compound `Cc1ccncc1-c1ccnc2c1cnn2CC(F)(F)F` has a Stability [1] of 41%, a Stability [3] of 30% and a Ratio [5] of 12. For the same compound, the Stability [4] was 92% and the IC50 (Cytochrome P450 1A2) was 11.2 µM.
In the case of `Fc1ccc(-n2ncc3c(-c4cncnc4NCC(F)(F)F)ccnc32)cc1`, the Stability [1] is reported as 3%, the IC50 [2] is reported as 0.008 µM and the Stability [3] is reported as 40%. The Ratio [5] was 3, the Stability [4] was 42% and the IC50 (Cytochrome P450 1A2) was 4.71 µM.
`Cc1ccncc1-c1ccnc2c1cnn2-c1ncccc1Cl` showed a Stability [1] of 25%, an IC50 [2] of 0.005 µM and a Stability [3] of 26%. The Ratio [5] was 7, the Stability [4] was 88% and the IC50 (Cytochrome P450 1A2) was 16.7 µM.
Work on `Cc1ccncc1-c1ccnc2c1cnn2-c1ccc(F)cc1F` yielded a Stability [1] of 37%, an IC50 [2] of 0.009 µM and a Stability [3] of 18%. For the same compound, the Ratio [5] was 19, the Stability [4] was 100% and the IC50 (Cytochrome P450 1A2) was 5.2 µM.
Compound `COc1c(F)cccc1-n1ncc2c(-c3cnccc3C)ccnc21` has a Stability [1] of 2%, an IC50 [2] of 0.014 µM and a Stability [3] of 0.2%. It also gave a Ratio [5] of 7, a Stability [4] of 77% and an IC50 (Cytochrome P450 1A2) of 4.74 µM.
`Fc1ccc(-n2ncc3c(-c4cncnc4NC4CC4)ccnc32)cc1` gave a Stability [1] of 7%, an IC50 [2] of 0.046 µM and a Stability [3] of 27%. The Ratio [5] was 6, the Stability [4] was 67% and the IC50 (Cytochrome P450 1A2) was 10.9 µM.
Work on `Cc1ccncc1-c1ccnc2c1cnn2C(C)(C)C` yielded a Stability [1] of 15%, an IC50 [2] of 0.092 µM and a Stability [3] of 16%. It also gave an IC50 (Cytochrome P450 1A2) of 5.28 µM.
In the case of `Nc1ncncc1-c1ccnc2c1cnn2-c1cccc(S(N)(=O)=O)c1`, the Stability [1] is reported as 95%, the IC50 [2] is reported as 0.099 µM and the Stability [3] is reported as 89%. For the same compound, the Stability [4] was 100% and the IC50 (Cytochrome P450 1A2) was greater than 40 µM.
Compound `COc1ccccc1-n1ncc2c(-c3cnccc3C)ccnc21` has a Stability [1] of 2%, an IC50 [2] of 0.009 µM and a Stability [3] of 1%. For the same compound, the Stability [4] was 88% and the IC50 (Cytochrome P450 1A2) was 15.4 µM.
`Cc1ncncc1-c1ccnc2c1cnn2-c1ccc(F)cc1` gave a Ratio [5] of 4 and an IC50 (Cytochrome P450 1A2) of 2.74 µM.
For `Cc1ccncc1-c1ccnc2c1cnn2Cc1ccc(F)cc1`, the IC50 [2] was 0.8 µM and the IC50 (Cytochrome P450 1A2) was 5.14 µM.
Compound `Cc1ccncc1-c1ccnn2c(-c3ccccc3)ccc12` has a Stability [1] of 7%, an IC50 [2] of 0.005 µM and a Stability [3] of 3%. It also gave a Stability [4] of 70% and an IC50 (Cytochrome P450 1A2) of 0.18 µM.
With `Nc1ncncc1-c1ccnc2c1cnn2-c1ccc(F)cc1F` the Stability [1] was 92%, the IC50 [2] was 0.011 µM and the Stability [3] was 100%. It also gave a Ratio [5] of 6, a Stability [4] of 98% and an IC50 (Cytochrome P450 1A2) greater than 40 µM.
Work on `Cc1ccncc1-c1ccnc2c1cnn2C` yielded an IC50 [2] greater than 1 µM and an IC50 (Cytochrome P450 1A2) greater than 40 µM.
With `Fc1ccc(-n2ncc3c(-c4cncnc4C(F)(F)F)ccnc32)cc1` the Stability [1] was 56%, the IC50 [2] was 0.141 µM and the Stability [3] was 63%. The Stability [4] was 88% and the IC50 (Cytochrome P450 1A2) was 2.14 µM.
For `Cc1ccncc1-c1ccnc2c(-c3ccccc3)noc12`, the Stability [1] was 5%, the IC50 [2] was 0.005 µM and the Stability [3] was 7%. For the same compound, the Stability [4] was 80% and the IC50 (Cytochrome P450 1A2) was 0.321 µM.
Compound `Cc1ccncc1-c1cccc2c(-c3ccccc3)cnn12` has a Stability [1] of 6%, an IC50 [2] of 0.002 µM and a Stability [3] of 3%. For the same compound, the Stability [4] was 79% and the IC50 (Cytochrome P450 1A2) was 0.034 µM.
With `Cc1ccncc1-c1ccnc2c1cnn2-c1ccc(F)cc1Cl` the Stability [1] was 14%, the IC50 [2] was 0.004 µM and the Stability [3] was 0.9%. It also gave a Ratio [5] of 3, a Stability [4] of 74% and an IC50 (Cytochrome P450 1A2) of 8.7 µM.
In the case of `Cc1ccncc1-c1ccnc2c(-c3ccccc3)csc12`, the Stability [1] is reported as 2%, the IC50 [2] is reported as 0.01 µM and the Stability [3] is reported as 3%. For the same compound, the Stability [4] was 65% and the IC50 (Cytochrome P450 1A2) was 0.25 µM.
For `Cc1ccncc1-c1cccc2c(-c3ccccc3)csc12`, the Stability [1] was 3%, the IC50 [2] was 0.003 µM and the Stability [3] was 2%. The Stability [4] was 84% and the IC50 (Cytochrome P450 1A2) was 0.134 µM.
In the case of `Nc1ncncc1-c1ccnc2c1cnn2-c1c(F)cc(F)cc1F`, the Stability [1] is reported as 82%, the IC50 [2] is reported as 0.005 µM and the Stability [3] is reported as 87%. The Ratio [5] was 3 and the IC50 (Cytochrome P450 1A2) was greater than 40 µM.
Compound `COc1ccncc1-c1ccnc2c1cnn2-c1ccc(F)cc1` has a Stability [1] of 58%, an IC50 [2] of 0.011 µM and a Stability [3] of 32%. It also gave a Ratio [5] of 10, a Stability [4] of 86% and an IC50 (Cytochrome P450 1A2) of 0.717 µM.
In the case of `Cc1ccncc1-c1ccnc2c1cnn2-c1ccc(F)cc1`, the Stability [1] is reported as 27%, the IC50 [2] is reported as 0.006 µM and the Stability [3] is reported as 43%. The Ratio [5] was 43, the Stability [4] was 100% and the IC50 (Cytochrome P450 1A2) was 0.384 µM.
For `Cc1ccncc1-c1ccnc2c1cnn2-c1ccc(F)c(Cl)c1`, the Stability [1] was 2%, the IC50 [2] was 0.024 µM and the Stability [3] was 37%. The Ratio [5] was 10, the Stability [4] was 85% and the IC50 (Cytochrome P450 1A2) was 0.662 µM.
For `Fc1ccc(-n2ncc3c(-c4cncn5cccc45)ccnc32)cc1`, the Stability [1] was 1%, the IC50 [2] was greater than 1 µM and the Stability [3] was 12%. It also gave a Ratio [5] of 13, a Stability [4] of 72% and an IC50 (Cytochrome P450 1A2) of 2.33 µM.
In the case of `Fc1ccc(-n2ncc3c(-c4cncnc4C4CC4)ccnc32)cc1`, the Stability [1] is reported as 55%, the IC50 [2] is reported as 0.023 µM and the Stability [3] is reported as 78%. It also gave a Ratio [5] of 13, a Stability [4] of 85% and an IC50 (Cytochrome P450 1A2) of 0.658 µM.
Compound `Nc1ncncc1-c1ccnc2c1cnn2-c1ccccn1` has a Stability [1] of 70%, a Stability [3] of 100% and a Stability [4] of 100%. For the same compound, the IC50 (Cytochrome P450 1A2) was greater than 40 µM.
`Nc1ccncc1-c1ccnc2c1cnn2-c1ccc(F)cc1` showed a Stability [1] of 3%, an IC50 [2] of 0.005 µM and a Stability [3] of 0.2%. For the same compound, the Ratio [5] was 7, the Stability [4] was 99% and the IC50 (Cytochrome P450 1A2) was 26.9 µM.
`Cc1ccncc1-c1cccc2c1OCCN2c1ccccc1` showed a Stability [1] of 2%, an IC50 [2] of 0.008 µM and a Stability [3] of 0.8%. The Stability [4] was 62% and the IC50 (Cytochrome P450 1A2) was 0.14 µM.
With `COc1cccc(-n2ncc3c(-c4cnccc4C)ccnc32)c1` the Stability [1] was 37%, the IC50 [2] was 0.003 µM and the Stability [3] was 6%. For the same compound, the Stability [4] was 21% and the IC50 (Cytochrome P450 1A2) was 1.48 µM.
In the case of `Nc1ncncc1-c1ccnc2c1cnn2-c1ncccc1C(F)(F)F`, the Stability [1] is reported as 62%, the IC50 [2] is reported as 0.011 µM and the Stability [3] is reported as 84%. For the same compound, the Ratio [5] was 4 and the Stability [4] was 98%.
